PMC5099547 (British Journal of Clinical Pharmacology, 2016)
Marks after values point to notes of the source that are not given here.

How the values were obtained:
[1] = Safety and tolerability, all three studies; format: in vivo, human
[2] = Edoxaban-cyclosporine drug interaction study, plasma pharmacokinetics
OCT2 = details: cited from earlier work
OAT1 = details: cited from earlier work
P‐gp = details: Caco‐2 cell monolayers; transport strongly hindered by P‐gp inhibitors; cited from earlier work
[3] = cited from earlier work
[4] = Edoxaban-ketoconazole drug interaction study, plasma pharmacokinetics
[5] = Edoxaban-erythromycin drug interaction study, plasma pharmacokinetics
OAT3 = details: cited from earlier work
OATP1B1 = details: cited from earlier work
[6] = cited from earlier work; remark: listed apart in the source
CYP3A4 = details: cited from earlier work
[7] = edoxaban + cyclosporine vs edoxaban alone
[8] = edoxaban + cyclosporine vs edoxaban alone, based on geometric LSM ratios
[9] = edoxaban + ketoconazole vs alone, reduced
[10] = edoxaban + erythromycin vs edoxaban alone
[11] = erythromycin study, edoxaban 60 mg alone, mean ± SD, n = 32

Compound: CN1CCc2nc(C(=O)N[C@@H]3C[C@@H](C(=O)N(C)C)CC[C@@H]3NC(=O)C(=O)Nc3ccc(Cl)cn3)sc2C1 [Edoxaban]
- serious adverse events [1]: No serious adverse events
- tolerability ([1]; alone or in combination with ketoconazole, erythromycin, or cyclosporine): well tolerated
- increase in peak exposure [2, 7]: approximately 1.7 fold
- increase in total exposure [2, 7]: approximately 1.7 fold
- increase in peak exposure (Cmax) [2, 8]: 74%
- increase in total exposure (AUC) [2, 8]: 73%
- AUC(0-inf) ([2]; human, in vivo, 60 mg): 1830 ± 363 ng·h/mL
- Tmax ([2]; human, in vivo, 60 mg): 1.5 h
- half-life ([2]; human, in vivo, 60 mg): 14.5 ± 5.34 h
- substrate of OCT2 (OCT2): not a substrate
- substrate of OAT1 (OAT1): not a substrate
- transport via P‐gp (P‐gp): transported via P‐gp
- metabolism via CYP3A4, share of total clearance [3]: < 4%
- oral (absolute) bioavailability [3]: 62%
- change in clearance [4, 9]: approximately 46%
- change in volume of distribution [4, 9]: approximately 46%
- increase in total exposure (AUC) ([4]; edoxaban + ketoconazole vs edoxaban alone): 87%
- half-life ([4]; human, in vivo): ~11.5 h
- AUC(0-inf) ([4]; human, in vivo, 60 mg): 1650 ± 412 ng·h/mL
- half-life ([4]; human, in vivo, 60 mg): 11.9 ± 4.11 h
- Cmax ([4]; human, in vivo, po, 60 mg): 245 ± 86.9 ng/mL
- decrease in apparent volume of distribution [5, 10]: 63%
- decrease in total apparent clearance [5, 10]: about 47%
- increase in total exposure (AUC) [5, 10]: 85%
- AUC (extrapolated to infinity) [5, 11]: 1740 ± 443.7 ^b ng h ml^–1
- t1/2 [5, 11]: 10.24 ± 3.71 ^b h
- Cmax ([5]; human, in vivo, po, 60 mg): 259 ± 100 ng/mL
- substrate of OAT3 (OAT3): not a substrate
- substrate of OATP1B1 (OATP1B1): not a substrate
- increase in total exposure with quinidine ([6]; intravenous dosing of edoxaban): about 35%
- increase in exposure with quinidine ([6]; oral edoxaban): about 68%

Compound: CC(=O)N1CCN(c2ccc(OCC3COC(Cn4ccnc4)(c4ccc(Cl)cc4Cl)O3)cc2)CC1 (centres unmarked) [ketoconazole]
- degree of CYP3A4 inhibitory activity (CYP3A4): strong
